From patent US20080280860A1, “Use of Vitamin D Compounds to Treat Endometriosis” (BioXell S.p.A., priority 2005, published 2008)

How the values were obtained:
endometriotic lesions = assay: In vivo model of endometriosis (lesion weight); parameters: species or system Balb/c mice
Procedure: Balb/c donor mice were injected with estrogen (Estradiol AMSA; 3 ug/mouse) and one week later were sacrificed and the uterus was removed, the two horns isolated and reduced to small fragments. The fragments derived from the isolated uterine horns were resuspended in saline with ampicillin (1 mg/ml) and then injected into the peritoneum of two recipient Balb/c mice, previously anesthesized, through a 0.5 cm incision in the abdominal wall. […] Antibiotic (ampicillin 1 mg/ml) was administered on the day of the surgery and on the day after. […] […] Lesions can be identified as translucid isolated or grouped cysts mainly found on the abdominal wall, on the pancreas, and around the uterus. In some cases the lesions are necrotic. The lesions were carefully removed and put on a glass slide to dry for 48 hours, and then were weighed. In other experiments lesions are transferred to a lysis solution and mRNA isolated for gene expression analysis. For immunohistochemical analysis, lesions were frozen immediately after isolation.
Balb/c donor mice were injected with estrogen (Estradiol AMSA; 3 ug/mouse) and one week later were sacrificed and the uterus was removed, the two horns isolated and reduced to small fragments. The fragments derived from the isolated uterine horns were resuspended in saline with ampicillin (1 mg/ml) and then injected into the peritoneum of two recipient Balb/c mice, previously anesthetised, through a 0.5 cm incision in the abdominal wall. Antibiotic (ampicillin 1 mg/ml) was administered on the day of the surgery and on the day after. […] Dosage levels of the test compounds were at the maximum tolerated levels for the compound in question, i.e. 1-alpha-fluoro-25-hydroxy-16,23E-diene-26,27-bishomo-20-epi-cholecalciferol (Compound A) 100 ug/kg, calcitriol (Compound B) 0.3 ug/kg and 1,25-dihydroxy-21-(3-hydroxy-3-methylbutyl)-19-nor-cholecalciferol (Compound C) 3 ug/kg.
[…] Lesions can be identified as translucid isolated or grouped cysts mainly found on the abdominal wall, on the pancreas, and around the uterus. In some cases the lesions are necrotic. The lesions were carefully removed and put on a glass slide to dry for 48 hours, and then were weighed.
Balb/c donor mice were injected with estrogen (Estradiol AMSA; 3 ug/mouse) and one week later were sacrificed and the uterus was removed, the two horns isolated and reduced to small fragments. The fragments derived from the isolated uterine horns were resuspended in saline with ampicillin (1 mg/ml) and then injected into the peritoneum of recipient Balb/c mice, previously anesthetised, through a 0.5 cm incision in the abdominal wall. Antibiotic (ampicillin 1 mg/ml) was administered on the day of the surgery and on the day after. […]
[…] Lesions can be identified as translucid isolated or grouped cysts mainly found on the abdominal wall, on the pancreas, and around the uterus. In some cases the lesions are necrotic. The lesions were carefully removed and put on a glass slide to dry for 48 hours, and then were weighed. At least 10 test animals were used in each group.
Further experiments were performed using Compound A at 100 ug/kg but varying the time at which administration of the vitamin D compound was initiated and the time point at which administration was ceased. Specifically: (i) administration for 1 week prior to injection of the uterine fragments (ii) administration for 2 weeks subsequent to injection of the uterine fragments (iii) administration for 1 week prior and 2 weeks subsequent to injection of the uterine fragments (iv) administration for 2 weeks, initiated two days subsequent to injection of the uterine fragments (v) administration for 2 weeks, initiated two weeks subsequent to injection of the uterine fragments. In these experiments, subjects were sacrificed at the later of two weeks post injection or the end of the treatment period as appropriate.

Maximum tolerated dose = assay type: in vivo, Balb/c mice
[1] = Example 3 dose/response, ip once a day, 5 days a week for two weeks, FIG. 7

C=C1/C(=C\C=C2/CCC[C@]3(C)C([C@@H](C)C/C=C/C(O)(CC)CC)=CC[C@@H]23)C[C@@H](O)C[C@@H]1F [Compound A, 1-alpha-fluoro-25-hydroxy-16,23E-diene-26,27-bishomo-20-epi-cholecalciferol]
reduction in lesion weight, group (v) (endometriotic lesions; 100 ug/kg, 2 weeks, initiated 2 weeks after uterus transfer, FIG. 8): 34% | reduction in lesion weight, group (iv) (endometriotic lesions; 100 ug/kg, 2 weeks, initiated 2 days after uterus transfer, FIG. 8): 35% | reduction in lesion weight, group (i) (endometriotic lesions; 100 ug/kg, administration for 1 week prior to injection of the uterine fragments, FIG. 8): 40% | reduction in lesion weight, group (iii) (endometriotic lesions; 100 ug/kg, one week before and two weeks after uterus transfer, FIG. 8): 73% | reduction in lesion weight, group (ii) (endometriotic lesions; 100 ug/kg, two weeks starting at the time of uterus transfer, FIG. 8): 48% | lesion weight, treated versus control (vehicle only) (endometriotic lesions; Example 1, 100 ug/kg ip once a day, 5 days a week for two weeks, 17 pairs of mice, p=0.0034 paired, p=0.020 unpaired t test): significant reduction in lesion weight | lesion weight reduction between paired animals (mean ± standard error) (endometriotic lesions; Example 2, 100 ug/kg ip once a day, 5 days a week for two weeks after uterus transfer, 24 mice per group): 51±11% | mean lesion weight (endometriotic lesions; Example 2, 100 ug/kg ip, two weeks, miglyol control 8.452±1.039 mg): 3.527 ± 0.5400 mg | reduction in lesion weight compared with the other compounds tested (endometriotic lesions; Example 2, each compound at its maximum tolerated level): most pronounced | lesion weight, treated versus control (vehicle only), statistical analysis (endometriotic lesions; Example 2, each compound at its maximum tolerated level, ip once a day, 5 days a week for two weeks): significant reduction in lesion weight | reduction in lesion weight at 1/10 MTD (endometriotic lesions; [1]): approximately 20% | reduction in lesion weight at around ⅓ MTD (endometriotic lesions; [1]): approximately 35% | MTD (Maximum tolerated dose; Balb/c, mouse, in vivo, mice, ip, above it the compound becomes hypercalcemic): 0.1 mg/kg | associated toxicity compared with the other compounds tested (Maximum tolerated dose; Example 2): lower associated toxicity
